Assay results: patent US20240319173A1, “REAGENTS AND METHODS FOR PROMOTING ARTERIAL ENDOTHELIUM DIFFERENTIATION AND NITRIC OXIDE PRODUCTION” (Wisconsin Alumni Research Foundation, priority 2023, published 2024)

Tests used:
AECs = assay: Nitric oxide (NO) production assay with DAF-FM; assay type: cell-based, human; conditions: AECs treated for 2 days, 1 μM DAF-FM, flow cytometry (FIG. 4A, 4B)
Procedure: FIG. 4A is a graph of nitric oxide (NO) production in response to contacting NOS3-NLuc-2A-tdTomato construct-containing reporter cells derived from arterial endothelial with compounds identified in the screen for 2 days.
These AECs were seeded on a vitronectin-coated 24-well plate (1×10^5 cells/well) with FVIR medium. Candidate compounds were added to the medium. Two days later, the medium was changed to fresh FVIR media containing 1 μM DAF-FM (4-Amino-5-Methylamino-2′,7′-Difluorofluorescein Diacetate). Cells were cultured for 30 mins and harvested for flow cytometric analysis. DAF-FM is nonfluorescent until it reacts with NO to form a fluorescent benzotriazole. Results of these experiments are shown in FIG. 3A, FIG. 3B, and FIG. 4.

[1] = tested on: NOS3-NLuc-2A-tdTomato hPSCs; assay: Arterial endothelial cell (AEC) differentiation, flow cytometry for CD144+ DLL4+ cells; assay type: cell-based, human; conditions: for AEC differentiation from PSCs: general statement, timing not given
From the text: FIG. 3A is a bar graph showing arterial endothelial cell differentiation in response to treatment on days 2 through 6 of different concentrations of compounds identified in compound screening assays. Differentiated arterial endothelial cells were identified by flow cytometry for CD144+ DLL4+ cells after 6 days of treatment.
FIG. 3B is a bar graph showing arterial endothelial cell differentiation in response to three specific compounds at day 3-6 of differentiation.
NOS3-NLuc-Tom human pluripotent stem cells (hPSCs), prepared as set forth above, were cultured in E8BAC medium for two days (day 0-2) to induce mesoderm formation. On days 2-5 cells received Five Factor medium daily, and AEC collected on day 6. More than 90% of the resulting cells were CD144^+CXCR4^+DLL4^+, consistent with differentiation to AEC cells.
C21-C33 compounds were further tested to confirm their effects. […] Thus, the effects of C21, C22, and C24-C31 on AEC differentiation from NOS3-NLuc-2A-tdTomato hPSCs were measured.

[2] = compound added from day 2 to day 6 of differentiation, dose-dependent (FIG. 3A)
[3] = compound added from day 3 to day 6 of differentiation (FIG. 3B)

Row | SMILES | NO production (DAF-FM fluorescence) compared to control treatment (AECs) | AEC differentiation from PSCs [1] | percentage of AEC on day 6 compared to control treatment [1, 2] | percentage of AEC on day 6 compared to control treatment [1, 3]
1 | Cc1ccc(CN2C(=O)NC(C)(c3ccc(Cl)cc3Cl)C2=O)cc1 (centres unmarked) [C24] | increase | increase | – | –
2 | O=S(=O)(N1CCCCCC1)N1CCN(c2ccnc3cc(Cl)ccc23)CC1 [C21] | increase | increase | increase | increased
3 | COc1ccc(C2CCCN2Cc2cc(C(C)(C)C)cc(O)c2O)cc1 (centres unmarked) [C22] | increase | increase | increase | –
4 | CNC(=O)c1c(F)cccc1Nc1nc(Nc2cc3c(cc2OC)CCN3C(=O)CN(C)C)nc2[nH]ccc12 [C31, GSK1838705A, reference compound] | increase | – | – | –
5 | CNS(=O)(=O)c1ccc(NC2CCc3ccccc32)c([N+](=O)[O-])c1 (centres unmarked) [C25] | – | increase | – | –
6 | CCCCCCCCCCCCCCCCCCOCC(COP(=O)([O-])OCC[N+](C)(C)C)OC (centres unmarked) [C33, 1-Octadecyl-2-methylglycero-3 PC] | – | increase | – | increased
7 | CCc1ccc(S(=O)(=O)N2CCCc3cc(C)ccc32)cc1 [C23] | increase | increase | – | increased
8 | CC1=CC(=O)C2=C(C)CC[C@@H]3[C@H](OC(=O)[C@H]3C)[C@@H]12 [C28, Leucomisine] | – | increase | – | –
